These are literature values, as cited in US20080317862A1, “Organic Compounds Comprising a Glycopyrrolium Salt” (priority 2005, published 2008).

The conditions of the data set: aerosol formulation for treating asthma, single administration of a metered dose.

Take `C[N+]1(C)CCC(OC(=O)C(O)(c2ccccc2)C2CCCC2)C1.[Br-]` (racemic) [glycopyrrolate, 3-[(cyclopentyl-hydroxyphenylacetyl)oxy]-1,1-dimethylpyrrolidinium bromide]: the duration of bronchodilation entry is “up to 12 hours”.
